Measured values: patent US20260174786A1, “A NITROGEN-CONTAINING SPIROCYCLIC COMPOUND, PHARMACEUTICAL COMPOSITION AND USE THEREOF” (Prime Gene Therapeutics Co., Ltd., priority 2022, published 2026)

biological target: T1, hTRPV3 (Homo sapiens, UniProt Q8NET8); experiment: Whole cell patch clamp inhibition rate test on HEK-293 cells instantaneously expressing TRPV3; format: cell-based; conditions: HEK293; hTRPV3, single concentration 0.3 μM
T1 construct: expressed in transfected cells; host or cells: HEK-293
T1 sequence (Q8NET8 1-790): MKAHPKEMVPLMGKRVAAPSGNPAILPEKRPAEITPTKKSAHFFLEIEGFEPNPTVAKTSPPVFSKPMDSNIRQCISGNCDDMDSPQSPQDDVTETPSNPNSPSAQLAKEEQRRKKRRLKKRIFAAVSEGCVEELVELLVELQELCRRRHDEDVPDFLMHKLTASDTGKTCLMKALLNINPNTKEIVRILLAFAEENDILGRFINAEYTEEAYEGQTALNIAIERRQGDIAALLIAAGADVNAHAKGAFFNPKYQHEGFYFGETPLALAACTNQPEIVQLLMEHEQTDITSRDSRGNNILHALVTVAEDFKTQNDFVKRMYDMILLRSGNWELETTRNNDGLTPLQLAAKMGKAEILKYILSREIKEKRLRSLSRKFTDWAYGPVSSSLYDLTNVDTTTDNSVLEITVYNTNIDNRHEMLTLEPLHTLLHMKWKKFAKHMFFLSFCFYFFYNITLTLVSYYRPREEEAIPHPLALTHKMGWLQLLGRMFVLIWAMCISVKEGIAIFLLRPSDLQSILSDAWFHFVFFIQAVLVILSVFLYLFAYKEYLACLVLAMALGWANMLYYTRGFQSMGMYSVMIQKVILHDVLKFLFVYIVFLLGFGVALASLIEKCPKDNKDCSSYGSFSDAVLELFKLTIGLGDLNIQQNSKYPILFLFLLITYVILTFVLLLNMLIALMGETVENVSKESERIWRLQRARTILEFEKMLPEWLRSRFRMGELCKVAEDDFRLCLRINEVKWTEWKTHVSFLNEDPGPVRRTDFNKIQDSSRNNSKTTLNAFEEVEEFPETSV
Description: In this study, HEK-293 cells instantaneously expressing TRPV3 were used for experimental detection.
The operation steps are as follows:
The cells were cultured in DMEM medium containing 10% fetal bovine serum at a temperature of 37° C. and a carbon dioxide concentration of 5%.
Day 1: Cells were inoculated into a 6-well plate with 5×10^5 cells per well.
Day 2: Transfection was performed using Lipofectamine 3000 transfection reagent, with a plasmid to transfection reagent ratio of 1 μg: 2 μL. The total amount of plasmid used per well was 3 μg. Specifically, two sterile centrifuge tubes were taken and 100 μL Opti-MEM was added to each tube. 6 μL Lipofectamine 3000 was added to one tube and mixed well; and 3 μg plasmid was added to another tube and mixed well, and then 6 μL P3000 was added and mixed well; Subsequently, the diluted plasmid DNA was added to diluted Lipofectamine 3000 and incubated at room temperature for 10-15 min. DNA liposome complex was dropped into the cells, shaked gently and mixed well, and then cultured in an incubator. The liquid was changed after 4 to 6 h.
Day 3: The cells were digested and seeded into 24 well plates with pre-placed cover slides, with 8×10^3 cells per well.
Day 4: Patch clamp testing was performed.
The voltage stimulation protocol for recording TRPV3 current using whole cell patch clamp is as follows: after forming a whole cell seal, a cell membrane voltage clamp was set at −80 mV. Firstly, a membrane potential was recorded at 0 mV, and then a voltage was command to start from −100 mV, to depolarize in the form of Ramp to 100 mV within 100 ms, and finally restore to 0 mV. Data collection was repeated every 5 seconds to observe the inhibitory effect of pharmaceutical on peak current. Experimental data was collected by EPC 10 amplifier (HEKA) and stored in PatchMaster (HEKA) software.
A microelectrode puller was used to pull the capillary glass tube into a recording electrode. The electrode filled with intracellular fluid was inserted into a microelectrode holder, and a microelectrode manipulator was operated under an inverted microscope to immerse the electrode in extracellular fluid and an electrode resistance (Rpip) was recorded. The electrode was brought into contact with the cell surface and a negative pressure suction was applied to form a high resistance seal (GΩ). At this point, a fast capacitance compensation was performed, and negative pressure was continued to apply in order to break the cell membrane, so that a whole cell recording mode was formed. Then, a slow capacitance compensation was performed and experimental parameters such as film capacitance (Cm) and series resistance (Rs) were recorded. No leakage compensation was provided.
When the TRPV3 current recorded by the whole cell had stabilized, administration was started. Each pharmaceutical concentration acted for 5 minutes (or until the current stabilized) before detecting the next concentration. A plurality of concentrations was tested for each test compound. A cover glass covered with cells was placed in a recording bath under an inverted microscope. A blank control extracellular solution and a working fluid for the compound to be tested sequentially flowed through the recording bath from low concentration to high concentration using gravity perfusion to act on the cells. Liquid exchange was performed using a peristaltic pump during recording. The current detected by each cell in the extracellular fluid without the compound served as its own control group. Each concentration was independently tested twice using at least two cells. All electrophysiological tests were conducted at room temperature.

Row | Compound | inhibition at 0.3 µM [%]
1 | CC(C)c1ccccc1-c1ccc2c(c1)C(O)CC21CCN(C(=O)c2ccc(F)cn2)CC1 (centres unmarked) [Example 4, (5-fluoropyridin-2-yl)(3-hydroxy-5-(2-isopropylphenyl)-2,3-dihydrospiro[indene-1,4′-piperidine]-1′-yl) ketone] | 25 to 50
2 | CC1(O)CC2(CCN(C(=O)c3ccc(F)cn3)C2)c2ccc(-c3ccccc3C3CC3)cc21 (centres unmarked) [Example 5, (5-(2-cyclopropylphenyl)-3-hydroxy-3-methyl-2,3-dihydrospiro[indene-1,3′-pyrrolidine]-1′-yl)(5-fluoropyridin-2-yl) ketone] | < 25
3 | O=C(c1ccc(F)cn1)N1CCC2(C1)CC(O)(C(F)(F)F)c1cc(-c3ccccc3C3CC3)ccc12 (centres unmarked) [Example 7, (5-(2-cyclopropylphenyl)-3-hydroxy-3-(trifluoromethyl)-2,3-dihydrospiro[indene-1,3′-pyrrolidine]-1′-yl)(5-fluoropyridin-2-yl) ketone] | < 25
4 | O=C(c1ccc(F)cn1)N1CCC2(C1)OB(O)c1ccccc12 (centres unmarked) [Example 8, (5-fluoropyridin-2-yl) (1-hydroxy-1H-spiro[benzo[c][1,2]oxaborolane-3,3′-pyrrolidine]-1′-yl) ketone] | < 25
5 | O=C(c1ccc(F)cn1)N1CCC2(C1)OB(O)c1cc(-c3ccccc3C3CC3)ccc12 (centres unmarked) [Example 9, (6-(2-cyclopropylphenyl)-1-hydroxy-1H-spiro[benzo[c][1,2]oxaborolane-3,3′-pyrrolidine]-1′-yl)(5-fluoropyridin-2-yl) ketone] | 25 to 50
6 | O=C(c1ccc(Cl)cn1)N1CCC2(C1)OB(O)c1cc(-c3ccccc3C3CC3)ccc12 (centres unmarked) [Example 10, (5-chloropyridin-2-yl)(6-(2-cyclopropylphenyl)-1-hydroxy-1H-spiro[benzo[c][1,2]oxaborolane-3,3′-pyrrolidine]-1′-yl) ketone] | 25 to 50
7 | [2H]C1(O)CC2(CN(C(=O)c3ccc(F)cn3)C([2H])([2H])C2)c2ccc(-c3ccccc3C3CC3)cc21 (centres unmarked) [Example 11, (5-(2-cyclopropylphenyl)-3-hydroxy-2,3-dihydrospiro[indene-1,3′-pyrrolidine]-1′-yl-3,5′,5′-d3)(5-fluoropyridin-2-yl) ketone] | 70 to 100
8 | Cc1nc(C(=O)N2CCC3(CC(O)c4cc(-c5ccccc5C5CC5)ccc43)C2)ccc1O (centres unmarked) [Example 13, (5-(2-cyclopropylphenyl)-3-hydroxy-2,3-dihydrospiro[indene-1,3′-pyrrolidine]-1′-yl)(5-hydroxy-6-methylpyridin-2-yl) ketone] | < 25
9 | CC(C)c1ccccc1-c1ccc2c(c1)C(O)CC21CCN(C(=O)c2ccc(F)cn2)C1 (centres unmarked) [Example 16, (5-fluoropyridin-2-yl)(3-hydroxy-5-(2-isopropylphenyl)-2,3-dihydrospiro[indene-1,3′-pyrrolidine]-1′-yl) ketone] | 70 to 100
10 | O=C(c1csc(Cl)n1)N1CCC2(CC(O)c3cc(-c4ccccc4C4CC4)ccc32)C1 (centres unmarked) [Example 17, (2-chlorothiazol-4-yl)(5-(2-cyclopropylphenyl)-3-hydroxy-2,3-dihydrospiro[indene-1,3′-pyrrolidine]-1′-yl) ketone] | 70 to 100
11 | CC(C)c1ccccc1-c1ccc2c(c1)C(O)CC21CCN(C(=O)c2csc(Cl)n2)C1 (centres unmarked) [Example 18, (2-chlorothiazol-4-yl)(3-hydroxy-5-(2-isopropylphenyl)-2,3-dihydrospiro[indene-1,3′-pyrrolidine]-1′-yl) ketone] | 70 to 100
12 | O=C(c1cccc(C2CC2)n1)N1CCC2(CC(O)c3cc(-c4ccccc4C4CC4)ccc32)C1 (centres unmarked) [Example 19, (5-(2-cyclopropylphenyl)-3-hydroxy-2,3-dihydrospiro[indene-1,3′-pyrrolidine]-1′-yl)(6-cyclopropylpyridin-2-yl) ketone] | 70 to 100
13 | CC(C)c1ccccc1-c1ccc2c(c1)C(O)CC21CCN(C(=O)c2cccc(C3CC3)n2)C1 (centres unmarked) [Example 20, (6-cyclopropylpyridin-2-yl)(3-hydroxy-5-(2-isopropylphenyl)-2,3-dihydrospiro[indene-1,3′-pyrrolidine]-1′-yl) ketone] | 70 to 100
14 | CC(C)c1ccccc1-c1ccc2c(c1)[C@H](O)C[C@@]21CCN(C(=O)c2ccc(F)cn2)C1 [Example 25] | 70 to 100
15 | CC(C)c1ccccc1-c1ccc2c(c1)[C@H](O)C[C@]21CCN(C(=O)c2ccc(F)cn2)C1 [Example 26] | < 25

Second part, the compound after the results:

Row | inhibition at 0.3 µM [%] | Compound
16 | < 25 | O=C(c1ccc(F)cn1)N1CCC2(CCC(O)c3cc(-c4ccccc4C4CC4)ccc32)C1 (centres unmarked) [Example 1, (6-(2-Cyclopropylphenyl)-4-hydroxy-3,4-dihydro-2H-spiro[naphthalene-1,3′-pyrrolidine]-1′-yl) (5-fluoropyridin-2-yl) ketone]
17 | < 25 | O=C(c1ccc(Cl)cn1)N1CCC2(CCC(O)c3cc(-c4ccccc4C4CC4)ccc32)C1 (centres unmarked) [Example 2, (5-chloropyridin-2-yl)(6-(2-cyclopropylphenyl)-4-hydroxy-3,4-dihydro-2H-spiro[naphthalene-1,3′-pyrrolidine]-1′-yl) ketone]
18 | 25 to 50 | O=C(c1ccc(F)cn1)N1CCC2(CC1)CC(O)c1cc(-c3ccccc3C3CC3)ccc12 (centres unmarked) [Example 3, (5-(2-cyclopropylphenyl)-3-hydroxy-2,3-dihydrospiro[indene-1,4′-piperidine]-1′-yl)(5-fluoropyridin-2-yl) ketone]
19 | 70 to 100 | [2H]C1(O)CC2(CCN(C(=O)c3ccc(F)cn3)C2)c2ccc(-c3ccccc3C3CC3)cc21 (centres unmarked) [Example 12, (5-(2-cyclopropylphenyl)-3-hydroxy-2,3-dihydrospiro[indene-1,3′-pyrrolidine]-1′-yl-3-d)(5-fluoropyridin-2-yl) ketone]
20 | 70 to 100 | O=C(c1ccc(Cl)cn1)N1CCC2(CC(O)c3cc(-c4ccccc4C4CC4)ccc32)C1 (centres unmarked) [Example 14, (5-chloropyridin-2-yl)(5-(2-cyclopropylphenyl)-3-hydroxy-2,3-dihydrospiro[indene-1,3′-pyrrolidine]-1′-yl) ketone]
21 | < 25 | O=C(c1ccc(F)cn1)N1CC[C@]2(C[C@@H](O)c3cc(-c4ccccc4C4CC4)ccc32)C1 [Example 22, ((1R,3R)-5-(2-cyclopropylphenyl)-3-hydroxy-2,3-dihydrospiro[indene-1,3′-pyrrolidine]-1′-yl)(5-fluoropyridin-2-yl)ketone]
22 | < 25 | O=C(c1ccc(F)cn1)N1CC[C@]2(C[C@H](O)c3cc(-c4ccccc4C4CC4)ccc32)C1 [Example 23, ((1R,3S)-5-(2-cyclopropylphenyl)-3-hydroxy-2,3-dihydrospiro[indene-1,3′-pyrrolidine]-1′-yl)(5-fluoropyridin-2-yl)ketone]
23 | < 25 | O=C(c1ccc(F)cn1)N1CC[C@@]2(C[C@H](O)c3cc(-c4ccccc4C4CC4)ccc32)C1 [Example 24, ((1S,3S)-5-(2-cyclopropylphenyl)-3-hydroxy-2,3-dihydrospiro[indene-1,3′-pyrrolidine]-1′-yl)(5-fluoropyridin-2-yl)ketone]
